System: primary HSCs

Cc1sc2c(c1C)C(c1ccc(Cl)cc1)=N[C@@H](CC(=O)OC(C)(C)C)c1nnc(C)n1-2 [JQ1, (S)-tert-butyl 2-(4-(4-chlorophenyl)-2,3,9-trimethyl-6H-thieno[3,2-f][1,2,4]triazolo[4,3-a][1,4]diazepin-6-yl)acetate]
Pla2r1 value_2 (gene Pla2r1, mRNA-Seq, sample Day_6_JQ1): 26.6778
Plat value_2 (gene Plat, mRNA-Seq, sample Day_6_JQ1): 141.636
Prelp value_2 (gene Prelp, mRNA-Seq, sample Day_6_JQ1): 1220.99
Prss35 value_2 (gene Prss35, mRNA-Seq, sample Day_6_JQ1): 23.844
Ptms value_2 (gene Ptms, mRNA-Seq, sample Day_6_JQ1): 627.919
Ptrf value_2 (gene Ptrf, mRNA-Seq, sample Day_6_JQ1): 259.645
Qpct value_2 (gene Qpct, mRNA-Seq, sample Day_6_JQ1): 87.1308
Rad51 value_2 (gene Rad51, mRNA-Seq, sample Day_6_JQ1): 12.1115
Rbp1 value_2 (gene Rbp1, mRNA-Seq, sample Day_6_JQ1): 218.378
Reck value_2 (gene Reck, mRNA-Seq, sample Day_6_JQ1): 17.3878
Rrm2 value_2 (gene Rrm2, mRNA-Seq, sample Day_6_JQ1): 68.04
Rtn1 value_2 (gene Rtn1, mRNA-Seq, sample Day_6_JQ1): 47.263
S100a4 value_2 (gene S100a4, mRNA-Seq, sample Day_6_JQ1): 250.226
Sbsn value_2 (gene Sbsn, mRNA-Seq, sample Day_6_JQ1): 16.3231
Scara3 value_2 (gene Scara3, mRNA-Seq, sample Day_6_JQ1): 43.4366
Sdpr value_2 (gene Sdpr, mRNA-Seq, sample Day_6_JQ1): 94.9074
Serpini1 value_2 (gene Serpini1, mRNA-Seq, sample Day_6_JQ1): 12.3234
Sesn3 value_2 (gene Sesn3, mRNA-Seq, sample Day_6_JQ1): 27.3512
Shcbp1 value_2 (gene Shcbp1, mRNA-Seq, sample Day_6_JQ1): 11.9996
Shisa2 value_2 (gene Shisa2, mRNA-Seq, sample Day_6_JQ1): 144.995
Slc2a8 value_2 (gene Slc2a8, mRNA-Seq, sample Day_6_JQ1): 16.1545
Slc9a3r1 value_2 (gene Slc9a3r1, mRNA-Seq, sample Day_6_JQ1): 161.158
Snai2 value_2 (gene Snai2, mRNA-Seq, sample Day_6_JQ1): 23.1888
Spag5 value_2 (gene Spag5, mRNA-Seq, sample Day_6_JQ1): 9.803
Spc25 value_2 (gene Spc25, mRNA-Seq, sample Day_6_JQ1): 27.2563
Svep1 value_2 (gene Svep1, mRNA-Seq, sample Day_6_JQ1): 86.2113
Tbx20 value_2 (gene Tbx20, mRNA-Seq, sample Day_6_JQ1): 54.5866
Tcf19 value_2 (gene Tcf19, mRNA-Seq, sample Day_6_JQ1): 43.53
Timp2 value_2 (gene Timp2, mRNA-Seq, sample Day_6_JQ1): 329.559
Top2a value_2 (gene Top2a, mRNA-Seq, sample Day_6_JQ1): 41.0029
Upk1b value_2 (gene Upk1b, mRNA-Seq, sample Day_6_JQ1): 78.8086
Wdr6 value_2 (gene Wdr6, mRNA-Seq, sample Day_6_JQ1): 56.5942
Zwilch value_2 (gene Zwilch, mRNA-Seq, sample Day_6_JQ1): 13.4294
3110003A17Rik value_2 (mRNA-Seq expression, Day_6_JQ1): 104.778
6330406I15Rik value_2 (mRNA-Seq expression, Day_6_JQ1): 30.5279
9030617O03Rik value_2 (mRNA-Seq expression, Day_6_JQ1): 9.249
AI597468 value_2 (mRNA-Seq expression, Day_6_JQ1): 20.0206
Adam12 value_2 (mRNA-Seq expression, Day_6_JQ1): 22.1402
Adora2b value_2 (mRNA-Seq expression, Day_6_JQ1): 12.9207
Aga value_2 (mRNA-Seq expression, Day_6_JQ1): 42.0303
Ak3 value_2 (mRNA-Seq expression, Day_6_JQ1): 27.7827
Anxa6 value_2 (mRNA-Seq expression, Day_6_JQ1): 122.139
Arhgef10 value_2 (mRNA-Seq expression, Day_6_JQ1): 5.987
Ass1 value_2 (mRNA-Seq expression, Day_6_JQ1): 41.1545
Atp8b2 value_2 (mRNA-Seq expression, Day_6_JQ1): 19.4721
Btg2 value_2 (mRNA-Seq expression, Day_6_JQ1): 38.7075
C1qtnf1 value_2 (mRNA-Seq expression, Day_6_JQ1): 19.1118
C1qtnf6 value_2 (mRNA-Seq expression, Day_6_JQ1): 58.5752
Cav1 value_2 (mRNA-Seq expression, Day_6_JQ1): 17.5128
Ccdc104 value_2 (mRNA-Seq expression, Day_6_JQ1): 19.7014
Ccdc109b value_2 (mRNA-Seq expression, Day_6_JQ1): 9.232
Cdc42bpa value_2 (mRNA-Seq expression, Day_6_JQ1): 16.5997
Cdkn2b value_2 (mRNA-Seq expression, Day_6_JQ1): 41.7085
Chst14 value_2 (mRNA-Seq expression, Day_6_JQ1): 18.8651
Ckap4 value_2 (mRNA-Seq expression, Day_6_JQ1): 147.656
Cnn2 value_2 (mRNA-Seq expression, Day_6_JQ1): 222.556
Col5a1 value_2 (mRNA-Seq expression, Day_6_JQ1): 106.143
Col5a2 value_2 (mRNA-Seq expression, Day_6_JQ1): 372.729
Col6a1 value_2 (mRNA-Seq expression, Day_6_JQ1): 47.4496
Col8a1 value_2 (mRNA-Seq expression, Day_6_JQ1): 69.7251
Cpe value_2 (mRNA-Seq expression, Day_6_JQ1): 54.9734
Cpz value_2 (mRNA-Seq expression, Day_6_JQ1): 4.843
Csrp1 value_2 (mRNA-Seq expression, Day_6_JQ1): 294.801
Cygb value_2 (mRNA-Seq expression, Day_6_JQ1): 51.8956
Cyp51 value_2 (mRNA-Seq expression, Day_6_JQ1): 13.4382
Dcaf12l1 value_2 (mRNA-Seq expression, Day_6_JQ1): 3.456
Dlg4 value_2 (mRNA-Seq expression, Day_6_JQ1): 9.101
Dnajb4 value_2 (mRNA-Seq expression, Day_6_JQ1): 44.3814
Dst value_2 (mRNA-Seq expression, Day_6_JQ1): 16.9506
Eda2r value_2 (mRNA-Seq expression, Day_6_JQ1): 23.0105
Efemp2 value_2 (mRNA-Seq expression, Day_6_JQ1): 169.818
Epdr1 value_2 (mRNA-Seq expression, Day_6_JQ1): 7.336
Evc2 value_2 (mRNA-Seq expression, Day_6_JQ1): 7.337
Fam114a1 value_2 (mRNA-Seq expression, Day_6_JQ1): 29.7898
Fam115c value_2 (mRNA-Seq expression, Day_6_JQ1): 4.611
Fam149a value_2 (mRNA-Seq expression, Day_6_JQ1): 4.452
Fam189b value_2 (mRNA-Seq expression, Day_6_JQ1): 7.431
Fgf18 value_2 (mRNA-Seq expression, Day_6_JQ1): 10.4873
Fhl2 value_2 (mRNA-Seq expression, Day_6_JQ1): 40.1985
Flnc value_2 (mRNA-Seq expression, Day_6_JQ1): 24.3492
Fzd2 value_2 (mRNA-Seq expression, Day_6_JQ1): 16.4688
Gabra3 value_2 (mRNA-Seq expression, Day_6_JQ1): 14.8418
Gas6 value_2 (mRNA-Seq expression, Day_6_JQ1): 41.2636
Gm5424 value_2 (mRNA-Seq expression, Day_6_JQ1): 5.331
Gpx8 value_2 (mRNA-Seq expression, Day_6_JQ1): 110.547
Grhpr value_2 (mRNA-Seq expression, Day_6_JQ1): 13.8722
Gria3 value_2 (mRNA-Seq expression, Day_6_JQ1): 4.78
Igfbp3 value_2 (mRNA-Seq expression, Day_6_JQ1): 483.66
Igsf8 value_2 (mRNA-Seq expression, Day_6_JQ1): 44.7273
Il1rap value_2 (mRNA-Seq expression, Day_6_JQ1): 20.7058
Inpp5a value_2 (mRNA-Seq expression, Day_6_JQ1): 33.3765
Isoc2b value_2 (mRNA-Seq expression, Day_6_JQ1): 4.059
Kif1a value_2 (mRNA-Seq expression, Day_6_JQ1): 6.57
LOC100616095 value_2 (mRNA-Seq expression, Day_6_JQ1): 13.992
Lama2 value_2 (mRNA-Seq expression, Day_6_JQ1): 9.263
Lars2 value_2 (mRNA-Seq expression, Day_6_JQ1): 12.6226
Lpp value_2 (mRNA-Seq expression, Day_6_JQ1): 24.9042
Lrig3 value_2 (mRNA-Seq expression, Day_6_JQ1): 4.218
Lrrn4 value_2 (mRNA-Seq expression, Day_6_JQ1): 11.7356
Maged2 value_2 (mRNA-Seq expression, Day_6_JQ1): 60.8426
Mboat7 value_2 (mRNA-Seq expression, Day_6_JQ1): 28.6438
Meg3 value_2 (mRNA-Seq expression, Day_6_JQ1): 15.1775
Mlec value_2 (mRNA-Seq expression, Day_6_JQ1): 92.0676
Mmgt2 value_2 (mRNA-Seq expression, Day_6_JQ1): 10.425
Mmp2 value_2 (mRNA-Seq expression, Day_6_JQ1): 73.6315
Mpp2 value_2 (mRNA-Seq expression, Day_6_JQ1): 4.639

— patent publication US20180325914A1, “INCREASING STORAGE OF VITAMIN A, VITAMIN D AND/OR LIPIDS” (Salk Institute for Biological Studies, priority 2014, published 2018)
